The results in this text go back to patent publication US12559455B2, “Compound as a UBR box domain ligand” (AUTOTAC INC., priority 2020, dated 2026).

Peptide text beside a SMILES is read from it. * marks the point of attachment. Cbz = O=C(OCc1ccccc1)*

Experiment [1] deals with T1, UBR1 (Rattus norvegicus, UniProt A0A8I5ZK69).
T1 construct: endogenous in cells; host or cells: L6 rat muscle-derived cells
Description: Inhibition of intracellular RGS4 degradation by transfection (immunoblotting). It counts as cell-based. As to conditions: L6 cell line transfected with RGS4 plasmid, compound 5 uM, 24 hours. The procedure: A L6 cell line, which is a rat muscle-derived cell, was cultured using a DMEM medium containing 10% FBS and 1% streptomycin/penicillin in an incubator in which 5% carbon dioxide was maintained. In order to measure the UBR1 binding strength according to the treatment with a representative compound selected from the present compounds, cells were aliquoted into a 6-well plate. The cells were additionally cultured for 24 hours so as to be completely attached to the surface of the plate. Opti-MEM, Lipofectamine, and an RGS4plasmid was reacted for transfection. After the reaction was completed, the cells are treated such that DNA was expressed intracellularly. […] To extract proteins from the collected cells, 50 uL of a lysis buffer (20 mM Tris, pH 7.4, 150 mM NaCl, 1% Triton-X-100, 2 mM NaF, 2 mM EDTA, 2 mM b-glycerophosphate, 5 mM sodium orthovanadate, 1 mM PMSF, leupeptin, aprotenin) was injected into each sample, and the cells were lysed. A sample buffer was added to each sample based on the measured total protein concentration, and the mixture was reacted at 100° C. for 5 minutes. After 5 uL was taken from the completely reacted sample and aliquoted into each well of an acrylamide gel, an immunoblotting method was performed, and the experimental results are illustrated in [FIG. 3]. […]

The subject of experiment [2] is UBR1. Description: Inhibition of R-nsP4 degradation by in vitro transcription/translation method. It counts as biochemical. The settings on record: compound 1 uM, 30° C. for 40 minutes, DHFR-Ub-R-nsP4 plasmid, immunoblotting. Here is the method:
A TnT® Quick Coupled Transcription/Translation System kit was used to confirm the R-nsP4 expression of the compounds. After a pre-mix was made using Transcend Biotin-Lysyl-tRNA, methionine, bestatin, a TnTquick Master mix and a DHFR-Ub-R-nsP4 plasmid, the pre-mix was mixed with a compound (1 uM). After each sample was reacted at 30° C. for 40 minutes, a 5×SDS loading dye was added thereto. After the resulting mixture was reacted at 95° C. for 2 minutes, 5 uL was taken and aliquoted into each well of an acrylamide gel, and then an immunoblotting method was performed, and the experimental results are illustrated in [FIG. 2]. For an in vitro transcription/translation method, a representative experiment was schematized from three or more independent experiments.
Referring to FIG. 2, it can be confirmed that the level of R-nsP4 is increased by Compound 2, Compound 3, Compound 7, Compound 12, Compound 14, and Compound 16 compared to the control. That is, it could be confirmed that in the case of treatment with the compound according to the present invention, the R-nsP4 level was increased by binding to UBR1.
(Immunoblotting shows a protein as a band on a membrane.)

Experiment [3] has as its target T1, UBR1. Description: Inhibition of muscle cell actin degradation by immunoblotting. It counts as cell-based. As to conditions: L6 cell line, compound 5 uM, 24 hours. Here is the method: To evaluate the actin degradation of compounds in muscle cells, a L6 cell line, which is a rat muscle-derived cell, was cultured using a DMEM medium containing 10% FBS and 1% streptomycin/penicillin in an incubator in which 5% carbon dioxide was maintained. In order to measure the UBR1 binding strength according to the treatment with a representative compound selected from the present compounds, cells were aliquoted into a 12-well plate. The cells were additionally cultured for 24 hours so as to be completely attached to the surface of the plate. […] To extract proteins from the collected cells, 50 uL of a lysis buffer (20 mM Tris, pH 7.4, 150 mM NaCl, 1% Triton-X-100, 2 mM NaF, 2 mM EDTA, 2 mM b-glycerophosphate, 5 mM sodium orthovanadate, 1 mM PMSF, leupeptin, aprotenin) was injected into each sample, and the cells were lysed. A sample buffer was added to each sample based on the measured total protein concentration, and the mixture was reacted at 100° C. for 5 minutes. After 5 uL was taken from the completely reacted sample and aliquoted into each well of an acrylamide gel, an immunoblotting method was performed, and the experimental results were illustrated in [FIG. 4], [FIG. 5], [FIG. 6], [FIG. 7], [FIG. 8], and [FIG. 9]. For the immunoblotting method, a representative experiment was schematized from three or more independent experiments.

The target in experiment [4] is T1, UBR1. Put plainly: UBR box domain binding strength by immunoprecipitation analysis, UBR1. It counts as cell-based. The settings on record: L6 cell line, 24 hours, immunoprecipitation and immunoblotting. Here is the method: (§1) To evaluate the binding strength of the compounds to UBR1, UBR2, UBR3 and UBR5 through the UBR box domain, a L6 cell line, which is a rat muscle-derived cell, was cultured using a DMEM medium containing 10% FBS and 1% streptomycin/penicillin in an incubator in which 5% carbon dioxide was maintained. In order to measure the UBR1 binding strength according to the treatment with a representative compound selected from the present compounds, cells were aliquoted into a 100 pi dish. The cells were additionally cultured for 24 hours so as to be completely attached to the surface of the plate. […] To extract proteins from the collected cells, 50 uL of a lysis buffer (20 mM Tris, pH 7.4, 150 mM NaCl, 1% Triton-X-100, 2 mM NaF, 2 mM EDTA, 2 mM b-glycerophosphate, 5 mM sodium orthovanadate, 1 mM PMSF, leupeptin, aprotenin) was injected into each sample, and the cells were lysed. Each sample was reacted with a UBR1 antibody for 16 hours based on the measured total protein concentration, and then reacted with Protein A/G beads for 3 hours. A sample buffer was added to the completely reacted sample and the resulting mixture was reacted at 100° C. for 5 minutes. After 20 uL was taken from the completely reacted sample and aliquoted into each well of an acrylamide gel, an immunoblotting method was performed, and the experimental results are illustrated in [FIG. 10] and [FIG. 11]. […]

A further experiment deals with T2, UBR3 (Rattus norvegicus, UniProt D4A7F0).
T2 construct: endogenous in cells; host or cells: L6 rat muscle-derived cells
Put plainly: UBR box domain binding strength by immunoprecipitation analysis, UBR3. Format: cell-based. As to conditions: L6 cell line, compound 5 uM, 24 hours, immunoprecipitation and immunoblotting. Here is the method:
as §1

In the next experiment the target is T3, UBR2 (Rattus norvegicus, UniProt A0A8I5YBG5).
T3 construct: endogenous in cells; host or cells: L6 rat muscle-derived cells
Description: UBR box domain binding strength by immunoprecipitation analysis, UBR2. It counts as cell-based. The settings on record: L6 cell line, compound 5 uM, 24 hours, immunoprecipitation and immunoblotting. Here is the method: as §1

A further experiment deals with T4, UBR box of Human UBR1 (Homo sapiens, UniProt Q8IWV7).
T4 construct: A Gln97-Pro168 portion corresponding to the UBR box of Human UBR1; made in house; host or cells: E. coli
T4 sequence (Q8IWV7 97-168): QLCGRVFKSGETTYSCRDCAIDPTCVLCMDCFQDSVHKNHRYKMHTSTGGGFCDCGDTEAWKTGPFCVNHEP
Description: UBR box domain binding by microscale thermophoresis (MST). As to conditions: RED-NHS labeled UBR1 UBR box protein (Gln97-Pro168), FIGS. 12 to 19. The procedure:
A Gln97-Pro168 portion corresponding to the UBR box of Human UBR1 (UniProt ID: Q81WV7) was cloned into a modified expression vector, and then expressed in E. coli. After affinity chromatography was used, a tag was removed by a protease, and then Gly-His-Met was added to the N-terminal. After ion chromatography was performed, a final UBR box protein of a UBR1 was purified using gel filtration chromatography in a buffer composition of 10 mM NaCl, 20 mM Tris-HCl, 2 mM beta-mercaptoethanol, and pH 7.5.
A dye of the Monolith protein labeling kit RED-NHS 2nd generation (Cat #MO-L011) has an NHS-ester group that forms a covalent bond with primary amines (lysine residues). This dye is optimized for a Monolith-series device equipped with a RED detector. A purified UBR1 UBR box protein was labeled according to the presented protocol using this kit.
Thermophoresis refers to a phenomenon in which particles move due to a temperature gradient. Particles present in a high temperature region have greater kinetic energy than particles present in a low temperature region, and more frequently collide with surrounding particles with greater energy. As a result, particles move from the high temperature region to the low temperature region.
Thermophoresis of proteins is typically different from that of protein-ligand complexes. This is because the binding of the ligand changes its size, electric charge, and solvation energy. […] Therefore, the binding of the UBR1 UBR box protein and the ligand compound was measured using MST, and it was confirmed that the presented ligand binds to the UBR1 UBR box (see FIGS. 12 to 19).
For orientation: Microscale thermophoresis detects binding through changes in fluorescence in a small temperature gradient.

The target in a further experiment is T5, UBR5 (Rattus norvegicus, UniProt Q62671).
T5 construct: endogenous in cells; host or cells: L6 rat muscle-derived cells
T5 sequence (Q62671 whole entry): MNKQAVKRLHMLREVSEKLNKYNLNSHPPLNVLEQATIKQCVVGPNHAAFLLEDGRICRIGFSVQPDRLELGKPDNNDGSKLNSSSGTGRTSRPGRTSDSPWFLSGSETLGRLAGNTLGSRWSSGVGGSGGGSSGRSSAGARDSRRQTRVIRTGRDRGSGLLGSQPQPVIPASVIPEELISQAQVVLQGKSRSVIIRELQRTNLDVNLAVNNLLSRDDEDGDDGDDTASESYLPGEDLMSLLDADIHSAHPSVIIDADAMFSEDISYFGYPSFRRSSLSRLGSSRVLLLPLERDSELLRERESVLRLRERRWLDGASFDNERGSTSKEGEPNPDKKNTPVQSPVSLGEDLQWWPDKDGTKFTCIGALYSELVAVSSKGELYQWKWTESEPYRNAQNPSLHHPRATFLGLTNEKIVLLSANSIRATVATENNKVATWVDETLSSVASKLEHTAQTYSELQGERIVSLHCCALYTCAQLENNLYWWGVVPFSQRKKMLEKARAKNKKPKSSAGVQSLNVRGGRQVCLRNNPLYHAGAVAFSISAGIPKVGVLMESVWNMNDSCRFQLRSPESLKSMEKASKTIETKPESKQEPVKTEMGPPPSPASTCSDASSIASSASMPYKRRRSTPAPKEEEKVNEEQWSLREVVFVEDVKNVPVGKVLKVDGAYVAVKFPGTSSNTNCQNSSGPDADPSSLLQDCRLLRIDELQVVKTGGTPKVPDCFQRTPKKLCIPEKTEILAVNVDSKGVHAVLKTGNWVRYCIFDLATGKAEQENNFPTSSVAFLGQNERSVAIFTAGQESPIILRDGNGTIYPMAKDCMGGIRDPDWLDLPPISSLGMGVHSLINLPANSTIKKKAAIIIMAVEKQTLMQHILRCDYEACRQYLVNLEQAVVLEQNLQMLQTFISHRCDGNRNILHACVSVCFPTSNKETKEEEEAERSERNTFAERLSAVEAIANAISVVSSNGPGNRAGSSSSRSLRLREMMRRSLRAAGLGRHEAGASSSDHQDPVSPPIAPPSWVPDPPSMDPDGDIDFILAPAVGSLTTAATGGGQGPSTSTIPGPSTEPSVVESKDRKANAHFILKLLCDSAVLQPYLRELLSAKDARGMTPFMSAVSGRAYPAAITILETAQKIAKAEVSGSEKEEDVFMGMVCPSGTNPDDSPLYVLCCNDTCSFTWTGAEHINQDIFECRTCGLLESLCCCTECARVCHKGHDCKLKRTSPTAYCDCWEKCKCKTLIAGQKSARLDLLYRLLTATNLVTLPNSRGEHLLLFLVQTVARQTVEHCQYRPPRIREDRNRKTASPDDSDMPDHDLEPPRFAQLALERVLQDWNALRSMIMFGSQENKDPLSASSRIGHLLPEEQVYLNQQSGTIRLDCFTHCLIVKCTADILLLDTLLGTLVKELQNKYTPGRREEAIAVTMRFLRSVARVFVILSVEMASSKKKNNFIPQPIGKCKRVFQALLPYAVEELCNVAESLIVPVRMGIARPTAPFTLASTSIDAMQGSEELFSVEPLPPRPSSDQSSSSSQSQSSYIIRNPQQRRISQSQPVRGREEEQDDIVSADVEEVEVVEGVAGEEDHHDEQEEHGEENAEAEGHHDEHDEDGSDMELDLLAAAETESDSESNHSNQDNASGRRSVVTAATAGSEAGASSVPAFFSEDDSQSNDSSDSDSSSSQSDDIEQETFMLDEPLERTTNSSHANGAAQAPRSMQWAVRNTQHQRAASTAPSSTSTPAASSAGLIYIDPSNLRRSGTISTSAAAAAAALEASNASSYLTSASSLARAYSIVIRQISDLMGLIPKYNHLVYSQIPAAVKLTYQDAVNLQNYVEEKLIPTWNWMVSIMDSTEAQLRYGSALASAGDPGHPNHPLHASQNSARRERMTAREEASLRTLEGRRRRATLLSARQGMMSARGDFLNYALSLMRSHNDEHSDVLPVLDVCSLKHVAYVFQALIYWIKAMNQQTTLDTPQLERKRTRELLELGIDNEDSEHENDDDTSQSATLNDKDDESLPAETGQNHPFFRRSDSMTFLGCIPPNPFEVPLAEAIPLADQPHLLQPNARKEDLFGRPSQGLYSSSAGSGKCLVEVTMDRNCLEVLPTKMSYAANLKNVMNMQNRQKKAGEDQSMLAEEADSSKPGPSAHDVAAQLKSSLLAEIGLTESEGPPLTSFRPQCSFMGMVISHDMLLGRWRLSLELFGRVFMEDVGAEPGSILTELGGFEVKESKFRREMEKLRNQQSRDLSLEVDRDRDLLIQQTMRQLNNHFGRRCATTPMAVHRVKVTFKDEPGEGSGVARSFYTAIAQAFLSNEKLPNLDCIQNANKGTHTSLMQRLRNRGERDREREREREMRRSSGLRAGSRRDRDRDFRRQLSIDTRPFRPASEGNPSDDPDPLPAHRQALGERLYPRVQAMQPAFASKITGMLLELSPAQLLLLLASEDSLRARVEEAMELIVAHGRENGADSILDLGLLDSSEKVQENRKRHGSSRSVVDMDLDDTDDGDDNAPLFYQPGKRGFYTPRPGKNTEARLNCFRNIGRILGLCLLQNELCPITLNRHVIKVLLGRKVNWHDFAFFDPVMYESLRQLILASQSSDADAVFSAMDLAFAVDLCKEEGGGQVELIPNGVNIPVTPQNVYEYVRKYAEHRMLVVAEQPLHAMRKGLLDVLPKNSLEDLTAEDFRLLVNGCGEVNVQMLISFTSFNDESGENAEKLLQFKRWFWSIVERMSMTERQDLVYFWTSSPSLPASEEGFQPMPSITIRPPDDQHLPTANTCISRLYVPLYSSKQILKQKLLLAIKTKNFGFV
Description: UBR box domain binding strength by immunoprecipitation analysis, UBR5. It counts as cell-based. As to conditions: L6 cell line, compound 5 uM, 24 hours, immunoprecipitation and immunoblotting. The procedure: as §1

For a further experiment, the system named is L6 cell line. Put plainly: Confirmation of whether muscle actin is Arg/N-degron pathway substrate (immunoblotting). Format: cell-based, rat. As to conditions: MG132 10 uM, 24 hours. The procedure: A L6 cell line, which is a rat muscle-derived cell, was cultured using a DMEM medium containing 10% FBS and 1% streptomycin/penicillin in an incubator in which 5% carbon dioxide was maintained, and cells were aliquoted into a 12-well plate after the culture. The cells were additionally cultured for 24 hours so as to be completely attached to the surface of the plate. To confirm whether MG132 increased UBR1 binding, cells were collected after treatment with MG132 (10 uM) alone for 24 hours. To extract proteins from the collected cells, 50 uL of a lysis buffer (20 mM Tris, pH 7.4, 150 mM NaCl, 1% Triton-X-100, 2 mM NaF, 2 mM EDTA, 2 mM b-glycerophosphate, 5 mM sodium orthovanadate, 1 mM PMSF, leupeptin, aprotenin) was injected into each sample, and the cells were lysed. A sample buffer was added to each sample based on the measured total protein concentration, and the mixture was reacted at 100° C. for 5 minutes. After 5 uL was taken from the completely reacted sample and aliquoted into each well of an acrylamide gel, an immunoblotting method was performed, and the experimental results are illustrated in [FIG. 1]. For the immunoblotting method, a representative experiment was schematized from three or more independent experiments.

T1 sequence (A0A8I5ZK69 1-1749): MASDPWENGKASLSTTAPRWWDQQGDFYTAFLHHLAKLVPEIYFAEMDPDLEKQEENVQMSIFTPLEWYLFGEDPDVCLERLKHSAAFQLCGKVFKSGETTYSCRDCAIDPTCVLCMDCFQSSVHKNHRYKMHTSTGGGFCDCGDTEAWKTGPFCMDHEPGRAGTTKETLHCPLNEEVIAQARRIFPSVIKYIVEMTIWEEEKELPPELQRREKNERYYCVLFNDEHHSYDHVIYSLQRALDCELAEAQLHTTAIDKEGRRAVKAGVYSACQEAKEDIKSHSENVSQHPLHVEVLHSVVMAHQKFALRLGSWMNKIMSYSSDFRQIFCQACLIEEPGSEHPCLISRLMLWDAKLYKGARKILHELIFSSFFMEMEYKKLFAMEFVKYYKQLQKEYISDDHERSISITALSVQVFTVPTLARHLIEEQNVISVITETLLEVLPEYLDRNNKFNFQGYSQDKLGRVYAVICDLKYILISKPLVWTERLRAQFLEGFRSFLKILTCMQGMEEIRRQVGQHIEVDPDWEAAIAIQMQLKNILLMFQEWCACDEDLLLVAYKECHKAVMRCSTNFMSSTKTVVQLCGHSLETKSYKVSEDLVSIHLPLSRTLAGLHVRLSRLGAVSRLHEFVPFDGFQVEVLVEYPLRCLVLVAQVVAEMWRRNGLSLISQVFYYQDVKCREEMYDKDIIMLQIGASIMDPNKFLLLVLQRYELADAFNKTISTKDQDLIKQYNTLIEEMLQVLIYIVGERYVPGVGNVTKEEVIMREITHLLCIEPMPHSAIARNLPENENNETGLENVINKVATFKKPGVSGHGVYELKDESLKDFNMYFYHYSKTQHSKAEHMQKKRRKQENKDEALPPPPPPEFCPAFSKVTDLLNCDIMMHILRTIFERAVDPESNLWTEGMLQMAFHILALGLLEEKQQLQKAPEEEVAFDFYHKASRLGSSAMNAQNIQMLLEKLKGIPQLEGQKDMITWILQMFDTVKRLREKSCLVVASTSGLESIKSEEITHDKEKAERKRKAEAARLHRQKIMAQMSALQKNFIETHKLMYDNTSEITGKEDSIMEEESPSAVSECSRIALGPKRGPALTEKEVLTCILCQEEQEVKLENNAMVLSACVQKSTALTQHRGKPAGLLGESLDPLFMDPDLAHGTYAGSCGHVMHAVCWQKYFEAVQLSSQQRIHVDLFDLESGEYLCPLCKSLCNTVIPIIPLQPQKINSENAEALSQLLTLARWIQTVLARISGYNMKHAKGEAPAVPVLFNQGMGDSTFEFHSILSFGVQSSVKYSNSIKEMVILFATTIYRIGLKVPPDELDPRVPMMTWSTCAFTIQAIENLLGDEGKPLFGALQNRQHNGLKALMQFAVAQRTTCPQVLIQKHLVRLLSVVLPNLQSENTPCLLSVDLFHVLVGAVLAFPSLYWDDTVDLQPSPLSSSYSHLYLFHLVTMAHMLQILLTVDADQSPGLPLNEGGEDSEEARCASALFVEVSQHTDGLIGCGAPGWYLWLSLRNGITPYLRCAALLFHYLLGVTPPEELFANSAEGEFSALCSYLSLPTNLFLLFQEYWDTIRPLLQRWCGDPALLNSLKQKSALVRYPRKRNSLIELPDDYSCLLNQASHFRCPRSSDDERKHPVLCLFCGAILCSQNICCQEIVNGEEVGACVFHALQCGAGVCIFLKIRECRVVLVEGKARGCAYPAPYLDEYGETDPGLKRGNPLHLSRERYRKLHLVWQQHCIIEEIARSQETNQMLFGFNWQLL

For the compound `Nc1ccc(S(=O)(=O)NNC(=O)c2ccc(O)cc2)cc1` [Compound 2, 4-amino-N′-(4-hydroxybenzoyl)benzenesulfonohydrazide], on UBR1 [1], the “level of RGS4 compared to the control” value is reported as “increased”. The “level of R-nsP4 compared to the control” value in the experiment with UBR1 [2] was “increased”. For the same compound, the “level of ACTA1 compared to the control” value at UBR1 [3] is listed as “further increased”. Further, the “binding strength of UBR1 and ACTA1” value on UBR1 [4] (compound 5 uM) is reported as “reduced”. For the same compound, the “binding strength of UBR3 and ACTA1” value at UBR3 was “reduced”. Further, the “binding strength of UBR2 and ACTA1” value at UBR2 is given as “reduced”. Also, on UBR box of Human UBR1, the “binding to UBR1 UBR box (MST)” value is listed as “binds”. For the same compound, at UBR5, the “binding strength of UBR5 and ACTA1” value is “reduced”.
Consider `Nc1ccc(S(=O)(=O)NNC(=O)c2ccc(O)cc2)cc1N1CCOCC1` [Compound 3, 4-amino-N′-(4-hydroxybenzoyl)-3-morpholinobenzenesulfonohydrazide], for which the “level of RGS4 compared to the control” value on UBR1 [1] is “increased”. Besides, the “level of R-nsP4 compared to the control” value in the experiment with UBR1 [2] is “increased”. Besides, the “level of ACTA1 compared to the control” value at UBR1 [3] is reported as “further increased”.
On to `Nc1ccc(S(=O)(=O)NNC(=O)c2cccc(-c3ccccc3)c2)cc1` [Compound 7, N′-([1,1′-biphenyl]-3-carbonyl)-4-aminobenzenesulfonohydrazide], for which the “level of R-nsP4 compared to the control” value with UBR1 [2] was “increased”. Further, the “level of ACTA1 compared to the control” value on UBR1 [3] was “further increased”.
As to `CC(N)c1ccc(S(=O)(=O)NNC(=O)c2ccc(O)cc2)cc1` (stereo not shown) [Compound 9, 4-(1-aminoethyl)-N′-(4-hydroxybenzoyl)benzenesulfonohydrazide], the “level of ACTA2 compared to the control” value on UBR1 [3] is reported as “further increased”. At UBR box of Human UBR1, the “binding to UBR1 UBR box (MST)” value was “binds”.
With `Nc1ccc(S(=O)(=O)NCC(=O)c2ccc(O)cc2)cc1` [Compound 12, 4-amino-N-(2-(4-hydroxyphenyl)-2-oxoethyl)benzenesulfonamide], in the experiment with UBR1 [2], the “level of R-nsP4 compared to the control” value is on record as “increased”. Besides, the “level of ACTG2 compared to the control” value at UBR1 [3] is “further increased”. Further, the “binding to UBR1 UBR box (MST)” value on UBR box of Human UBR1 is given as “binds”.
For `COc1ccc(S(=O)(=O)NNC(=O)c2ccc(O)cc2)cc1` [Compound 13, N′-(4-hydroxybenzoyl)-4-methoxybenzenesulfonohydrazide], the “level of ACTG2 compared to the control” value on UBR1 [3] is recorded as “further increased”. For the same compound, the “binding to UBR1 UBR box (MST)” value at UBR box of Human UBR1 is “binds”.
Consider `N=C(N)c1ccc(S(=O)(=O)NNC(=O)c2ccc(O)cc2)cc1` [Compound 14, 4-((2-(4-hydroxybenzoyl)hydrazinyl)sulfonyl)benzimidamide], for which the “level of R-nsP4 compared to the control” value in the experiment with UBR1 [2] is reported as “increased”. Moreover, at UBR1 [3], the “level of ACTG2 compared to the control” value is “further increased”.
Consider `Nc1ccc(S(=O)(=O)CNC(=O)c2ccc(O)cc2)cc1` [Compound 16, N-(((4-aminophenyl)sulfonyl)methyl)-4-hydroxybenzamide], for which the “level of R-nsP4 compared to the control” value in the experiment with UBR1 [2] is “increased”. The “level of ACTA1 compared to the control” value at UBR1 [3] is on record as “further increased”.
With `CC(C)C[C@@H](C=O)NC(=O)[C@H](CC(C)C)NC(=O)[C@H](CC(C)C)NC(=O)OCc1ccccc1` [MG132] (Cbz-Leu-Leu-Leu-aldehyde), on UBR1 [4] (MG132 10 uM as negative control), the “binding strength between UBR1 and a substrate ACTA1” value was “maintained”. Also, in the experiment with L6 cell line, the “level of ACTA1 compared to a control” value was “increased”, the “level of ACTC1 compared to a control” value is recorded as “increased” and the “level of ACTG2 compared to a control” value is reported as “increased”.
